Data published in article PMC12066179, “Naphthyl-Substituted Ruthenium(II)–Arene Complexes: Exploring the Impact of Binding Modes on Cytotoxicity in Cancer and Normal Cell Lines” (Bioinorganic Chemistry and Applications, 2025).

Experiments:
FS-DNA = FS-DNA binding by UV-Vis titration; settings: complex 0–15 μM, 20 mM Tris-HCl/NaCl buffer pH 7.2
Procedure: To investigate these interactions, UV-Vis analyses were performed on complexes Ru1-3 (0–15 μM) in 20 mM Tris-HCl/NaCl buffer (pH 7.2) containing 0.1 mM FS-DNA. The corresponding absorption spectra are provided in the supporting information. Aromatic naphthyl groups are known for their ability to intercalate between DNA base pairs. […] While Ru1 is a cationic complex with a high capacity for hydrogen bonding, potentially facilitating ionic interactions with DNA, its overall interaction was weaker compared to the other complexes.
UV-visible spectroscopy was employed to investigate the interaction between […] and Ru1-3. Different concentrations of Ru1-3 (0–15 μM) were titrated against a fixed concentration of FS-DNA ([…]) to monitor changes in absorbance at 260 nm. The analysis of these titration data allowed for the determination of the binding constant (Kb) using the following equation:(1) 1/A−A0=1/Amax−A0+1/C×1/KbAmax−A0, where A is the absorbance of FS-DNA at a specific concentration with increasing complex concentration, A0 is the absorbance of FS-DNA without complex, Amax is the absorbance of the FS-DNA complex at the final state, and C is the complex concentration.

[1] = system: MCF-7 (breast cancer) cell line; experiment: MTT cell viability assay, MCF-7; assay type: cell-based
Procedure: (§1) The MTT assay, which is based on the reduction of 3-(4,5-dimethylthiazol-2-yl)-2,5-diphenyltetrazolium bromide to a purple formazan product, was performed to estimate cell viability and growth. To determine the appropriate dose and time, we performed the MTT assay in HepG2, MCF-7, Caco-2, and Vero cell lines. Cell suspensions of […] cell lines were first prepared at densities of 1 × 10^4/mL cells per well of 96-well culture dishes and plated in triplicate. Cells were then incubated with the complexes (2.5, 5, 10, 25, and 50 μM) for 24 and 48 h. After the treatment using the complexes, a 10 μL MTT (Glentham Life Sciences, GC4568) solution was added to each well, followed by incubation for 4 h at 37°C in 5% CO2. The medium was then discarded, and 50 μL DMSO was added to each well to dissolve the formazan crystals. The absorbance was immediately measured at 540 nm using a UV-visible spectrophotometer multiplate reader.

[2] = system: Vero (normal kidney) cell line; experiment: MTT cell viability assay, Vero; assay type: cell-based; settings: for IC50: MTT
Procedure: as §1

[3] = system: HepG2 (liver cancer) cell line; experiment: MTT cell viability assay, HepG2; assay type: cell-based
Procedure: as §1

[4] = system: Caco-2 (colorectal cancer) cell line; experiment: MTT cell viability assay, Caco-2; assay type: cell-based
Procedure: as §1

Binding constant (Kb) with FS-DNA (FS-DNA): 22700 M⁻¹
IC50 ([1]; 24 h exposure): 2.81 µM
IC50 ([1]; 48 h exposure): 8.75 µM
IC50 ([3]; 24 h exposure): 4.72 µM
IC50 ([3]; 48 h exposure): 8.8 µM
IC50 ([4]; 24 h exposure): 1.39 µM
IC50 ([4]; 48 h exposure): 3.39 µM
SMILES: Cc1ccc(C(C)C)cc1.Cc1ccc(S(=O)(=O)[N](CCNc2cccc3ccccc23)[Ru][Cl])cc1 [Ru2]
Cytotoxic activity in Vero healthy cell line ([2]; 50–2.5 μM, 24 h and 48 h): did not manifest any cytotoxic activity at concentrations other than 50 μM
IC50 ([2]; 24 h exposure): 7.8 µM
IC50 ([2]; 48 h exposure): 38.3 µM
